Values of other authors, collected in patent publication US12256762B2, “Sweetener composition and methods of making it” (eBIO Nutritional Sciences LLC, priority 2017, dated 2025).

details: published partition coefficients

Compound	Partition Coefficient (log P)
CCCCCCCC/C=C\CCCCCCCC(=O)O [Oleic C18:1]	7.68
C=C1C[C@@]23CC[C@H]4[C@@](C)(CCC[C@@]4(C)C(=O)O)[C@@H]2CC[C@]1(O)C3 [Steviol, reference compound]	3.18
CC/C=C\C/C=C\C/C=C\CCCCCCCC(=O)O [Alpha-Linolenic C18:3]	6.59
CCCCCCCCCCCCCCCCCC(=O)O [Stearic C18:0]	8.02
CCCCCCCCCCCCCCCC(=O)O [Palmitic C16:0]	7.23
Cucurbitacin [reference compound]	3.19
CCCCC/C=C\C/C=C\CCCCCCCC(=O)O [Linoleic C18:2]	7.06
